Measured values reported in patent publication US20070254907A1, “COMPOSITIONS AND METHODS FOR CONTROLLING INFESTATION” (HATCHTECH PTY LTD, priority 2003, published 2007).
Several values for one entry are separate records, joined by “and”; a condition that tells them apart may be missing. Equal values may be shown once. Square brackets hold non-standard residues; d marks the D form. Peptide text beside a SMILES is read from it. * marks the point of attachment. Sta = CC(C)C[C@H](N)[C@@H](O)CC(=O)O; Isovaleryl = CC(C)CC(=O)*

Legend:
lice eggs = test: whole plant or invertebrate; type: in vivo; conditions: for H (number of eggs successfully hatched) / Ph (number of eggs partly hatched): per replicate, concentration not given
[1] = system: Lice (L) and Plutella (P) eggs
[2] = system: Lice (L) and Plutella (P) eggs; test: whole plant or invertebrate; conditions: read-out: Ovicidal activity %
[3] = system: proteases in egg shell washings (ESW) of lice eggs; test: Gelatin substrate SDS-PAGE of lice egg shell washings (ESW) incubated with protease inhibitors; type: biochemical, Pediculus humanus humanus; conditions: gel strips incubated with inhibitor: PMSF 5 mM, 1,10-phenanthroline 10 mM, EDTA 10 mM, pepstatin 5 μM, E-64 10 μM
Protocol: Within 12 hours of hatching 50 body lice eggs (Pediculus humanus humanus) were removed from the hair and placed in a 1 mL eppendorf tube. 20 μL of distilled water was added to the unhatched eggs and the preparation incubated for 30 minutes at 32° C. The 20 μL was recovered, freeze dried and stored at −70° C. This sample was referred to as sample 1. A number of other samples were also collected as described. Sample 2 was collected by removing the unhatched louse eggs from four hairs that were approximately 3 cm long, cutting the hair into 0.5 cm lengths, and placing them into a microfuge tube containing 20 μl of distilled water and incubating at 32° C. for 30 minutes. Sample 3 was collected as for sample 2, but the hair was placed in a tube containing 10 mL of 1% sodium hypochlorite for 1 minute followed by five 1 minute washes in 25 mL of distilled water to remove the sodium hypochlorite before being incubated in a microfuge tube containing 20 μl of distilled water and incubated as for Sample 2. Sample 4 was collected from unhatched eggs which were removed from the hair and washed with 1% sodium hypochlorite and incubated in 20 μl of distilled water in the same manner as the hair in Sample 3. Finally, Sample 5 was collected from eggs that were within 24 hrs of hatching which were washed with 1% sodium hypochlorite, then returned to the incubator at 32° C. until they hatched, the empty egg shells collected 0-2 hrs after egg-hatching, placed in a 1 mL microfuge tube containing 20 μl of distilled water and incubated as for Samples 1-4. For all samples 1-5 the 20 μl of fluid was recovered, freeze-dried and stored at −70° C. The washings recovered from these freshly hatched egg shells are referred to as egg-shell-washings (ESWs). In order to look for the presence of proteases present in these different samples, the freeze-dried samples were resuspended in 15 μL of non-reducing SDS sample buffer, centrifuged at 10,000 g for 2 minutes and the entire 15 μL loaded on to 10% gelatine substrate SDS-PAGE gels. Gels were run at 4° C. for 10 minutes at 10 mA followed by a further 25 minutes at 15 mA per gel. They were then incubated for 2×20 minutes in a 2.5% Triton-X 100 solution followed by a three hour incubation in 0.1M Tris/HCl containing 1 mM CaCl2 pH 8.0. Activity was detected as clear areas on the gel the result of protease activity degrading the gelatine within the gel.
Protease activity in the ESWs from louse eggs was also examined using two-dimensional gel electrophoresis. It was necessary to collect large numbers of freshly hatched egg shells. Following egglaying onto pieces of cloth, adult female lice were removed and the cloth with the eggs washed with 1% sodium hypochlorite as for collection of ESWs. The eggs were then returned to the incubator and permitted to hatch. Typically 100 to 500 hatched egg shells were collected (0-2 hours post hatching), placed in a microfuge tube containing 200 μl of distilled water, incubated and sample treated as described above. For analysis, ESWs were resuspended in rehydration buffer (8 M Urea, 2% 3-[(3-cholamidopropyl) dimethylammonio]-1-propanesulfonate 2% Immobilised pH gradient buffer 3-10 (Amersham Phamacia Biotech, Uppsala, Sweden)) and used to rehydrate 7 cm Immobiline Dry strips pH 3-10 (Amersham Bioscience) overnight. Strips were transferred to the Multiphor II (Pharmacia, Sweden) apparatus, electrophoresed in the first dimension at 200 V for 1 min, increasing to 3,500 V over the next 90 min followed by 65 min at 3,500 V, equilibrated (6 M urea, 30% glycerol, 50 mM Tris pH 8.8 and 2% SDS) and then run on a 10% SDS-PAGE gel containing 0.1% gelatin for the second dimension. The gel was then run and developed as previously described.
10% SDS-PAGE gelatine substrate gels were loaded with freeze dried egg shell washings from 100 lice eggs that had been resuspended in 50 μL of non-reducing sample buffer with samples run at 10 μL per lane. […]

Plutella xylostella eggs [4] = test: whole plant or invertebrate; type: in vivo; conditions: for inhibition of Plutella egg hatching: 1% diethoxyglycol; for Number hatched / Number unhatched: Table 17, eggs laid on cloth; for % Inhibition: Table 17, relative to control (1% diethoxyglycol)
Protocol: The ovicidal efficacy of 2-acetyl-1-tetralone was also tested against Plutella eggs.

Plutella xylostella eggs [5] = test: Glass house ovicidal test on sprayed cabbage plants; type: in vivo; conditions: 10 eggs per cabbage plant, one value per plant
Text: A number of treatments and replicates were set up in the glass house using young cabbage plants that were at the 4-5 leaf stage. Plutella xylostella eggs were laid by gravid females on the leaves such that each plant contained 10 eggs. The plants were sprayed with a commercial ovicide or using the compounds 5,5′-dimethyl-2,2′-dipyridyl and 5,5′diethyl-2,2′-dipyridyl in a formulation at the rate of 200 L/Ha using a track sprayer. Controls of water only or Placebo only were also included. The ovicidal efficacy was monitored over a number of days an the number of eggs hatching and caterpillar larvae emerging recorded (Table 22).

head lice eggs = test: Head lice egg hatching with formulated compound; type: in vivo; conditions: 20 mM formulation, 10 minutes exposure, n=10 eggs
Protocol: Gravid female lice were permitted to lay eggs. The eggs were counted, inspected under a light microscope and all eggs that appeared undamaged were allocated to one of two treatment groups. One group was exposed to 5′-dimethyl-2,2′-dipyridyl in a formulation, while the second group was exposed to the formulation only. The protocol was as follows:
Treatments: 5'-dimethyl-2,2'dipyridyl (20mM) n=10
Vehicle control only n=10
Exposure time: 10 minutes
Wash time: 1 minute @˜37° C.
Incubation: All eggs were placed at 31° C. in a humid incubator and monitored for signs of development specifically of the eye and subsequent hatching, see Table 21.

[6] = 0-24 h, 10 mM (200 L/Ha), with wetting agent 0.3 ml/L

## c1ccc(-c2ccccn2)nc1 [2,2′-dipyridyl]
Lice eggs; all time points examined (24-120 hr post egg laying)
  lice egg hatching: completely inhibited
Lice eggs; treated 24 hr post egg laying
  H (number of eggs successfully hatched): 0
  Ph (number of eggs partly hatched): 0
Lice eggs; treated 48 hr post egg laying
  H (number of eggs successfully hatched): 0
  Ph (number of eggs partly hatched): 0
Lice eggs; treated 72 hr post egg laying
  H (number of eggs successfully hatched): 0
  Ph (number of eggs partly hatched): 0
Lice eggs; treated 96 hr post egg laying
  H (number of eggs successfully hatched): 1 and 0 (2×)
  Ph (number of eggs partly hatched): 0
Lice eggs; treated 120 hr post egg laying
  H (number of eggs successfully hatched): 0
  Ph (number of eggs partly hatched): 0
[1]; Lice (L) and Plutella (P), 10 mM
  Ovicidal activity %: 100.00%
[1]; Lice (L) and Plutella (P), listed as of 10 mM
  Activity class 0 = inactive 1 = low 2 = med 3 = high: 1 (a pLD50 value between 2 and 3 is considered weakly active (Class 1))

## COc1ccc(C(=O)CC(=O)c2ccc(C(C)(C)C)cc2)cc1 [1-(4-tert-butylphenyl)-3-(4-methoxyphenyl)-propane-1,3-dione]
[2]
  inhibition at 10000 µM: 0%
[1]; in vivo
  Logit calc pLD50: 0.7
  Pref pLD50: <2

## CC(C)C[C@H](NC(=O)[C@H]1O[C@@H]1C(=O)O)C(=O)NCCCCN=C(N)N [E-64]
[3]
  protease activity of ESW on gelatin SDS-PAGE compared to untreated controls: no apparent reduction in protease activity

## CCc1ccc(-c2ccc(CC)cn2)nc1 [5,5′-diethyl-2,2′-dipyridyl]
Plutella xylostella eggs [4]; 0.1 mM
  inhibition of Plutella egg hatching: Partial inhibition of egg hatching
  % Inhibition: 31%
Plutella xylostella eggs [4]; 1 mM
  inhibition of Plutella egg hatching: complete inhibition
  % Inhibition: 100%
Plutella xylostella eggs [4]; 0.1 mM in 1% diethoxyglycol
  Number hatched: 22
  Number unhatched: 34
Plutella xylostella eggs [4]; 1 mM in 1% diethoxyglycol
  Number hatched: 0
  Number unhatched: 34
Plutella xylostella eggs [5]; 0-24 h, 10 mM (200 L/Ha) No Wetting Agent
  # LARVAE EMERGED: 0
Plutella xylostella eggs [5]; [6]
  # LARVAE EMERGED: 0

## O=C(CC(=O)c1cc(Cl)ccc1O)c1ccccc1 [1-(5-Chloro-2-hydroxy-phenyl)-3-phenyl-propane-1,3-dione]
[2]
  inhibition at 10000 µM: 0%

## O=S(=O)(F)Cc1ccccc1 [PMSF]
[3]
  protease activity of ESW on gelatin SDS-PAGE compared to untreated controls: no apparent reduction in protease activity

## CC(C)CC(=O)N[C@H](C(=O)N[C@H](C(=O)N[C@@H](CC(C)C)[C@@H](O)CC(=O)N[C@@H](C)C(=O)N[C@@H](CC(C)C)[C@@H](O)CC(=O)O)C(C)C)C(C)C [pepstatin] (Isovaleryl-VV[Sta]A[Sta]-OH)
[3]
  protease activity of ESW on gelatin SDS-PAGE compared to untreated controls: no apparent reduction in protease activity

## Cc1ccc(-c2ccc(C)cn2)nc1 [Ha44]
Head lice eggs; Day 1
  Stage of development: number of eggs with eye development: 1 eye development
  Stage of development: number of eggs with no eye dev.: 9 no eye dev.
Head lice eggs; Day 4
  Stage of development: number of eggs hatched: 1 hatched
  Stage of development: number of eggs with eye development: 1 eye development
  Stage of development: number of eggs with no eye dev.: 8 no eye dev.
Head lice eggs; Day 5
  Stage of development: number of eggs with eye development: 1 eye development
  Stage of development: number of eggs with no eye dev.: 8 no eye dev.
Head lice eggs; Day 6
  Stage of development: number of eggs with eye development: 1 eye development
  Stage of development: number of eggs with no eye dev.: 8 no eye dev.
Head lice eggs; Day 7
  Stage of development: number of eggs with eye development: 1 eye development
  Stage of development: number of eggs with no eye dev.: 8 no eye dev.
Head lice eggs; Day 12
  Stage of development: number of eggs with eye development: 1 eye development
  Stage of development: number of eggs with no eye dev.: 8 no eye dev.

## O=C(CC(=O)C(F)(F)F)c1ccccc1 [4,4,4-Trifluoro-1-phenyl-butane-1,3-dione]
[2]
  inhibition at 10000 µM: 0%

## c1ccc(-c2cc(N3CCOCC3)c3ccccc3n2)nc1 [4-Morpholin-4-yl-2-pyridin-2-yl-quinoline]
[2]
  inhibition at 10000 µM: 0%

## Cc1ccc(-c2ccc(C)cn2)nc1 [5,5′dimethyl-2,2′-dipyridyl]
Plutella xylostella eggs [5]; [6]
  # LARVAE EMERGED: 0
Plutella xylostella eggs [5]; 0-24 h, 20 mM (200 L/Ha), with wetting agent 0.3 ml/L
  # LARVAE EMERGED: 0
Plutella xylostella eggs [5]; 24-48 h, 10 mM (200 L/Ha), with wetting agent 0.3 ml/L
  # LARVAE EMERGED: 0
Plutella xylostella eggs [5]; 24-48 h, 20 mM (200 L/Ha), with wetting agent 0.3 ml/L
  # LARVAE EMERGED: 0
Plutella xylostella eggs [5]; 48-72 h, 20 mM (200 L/Ha), with wetting agent 0.3 ml/L
  # LARVAE EMERGED: 0

## O=C(O)CN(CCN(CC(=O)O)CC(=O)O)CC(=O)O [EDTA, ethylenediamine tetraacetic acid]
[3]
  protease activity of ESW on gelatin SDS-PAGE compared to untreated controls: reduction in protease activity

## c1cnc2ccc3ncccc3c2c1 [4,7-phenanthroline]
[2]
  inhibition at 10000 µM: 0%

## c1ccc2nc(-c3ccc4ccccc4n3)ccc2c1 [2,2′-biquinoline]
[2]
  inhibition at 10000 µM: 0%

## c1ccc(Cc2ccccn2)cc1 [2-benzyl-pyridine]
[2]
  inhibition at 10000 µM: 0%
